27 compounds from US9902696B2, “1,4-substituted piperidine derivatives” (Cephalon, Inc., priority 2015, dated 2018) can be followed below.

Counter-ions that a name gives are not always drawn.

The target of this test is T1, recombinant human baculovirus-expressed GST-tagged FASN (Homo sapiens, UniProt P49327).
T1 construct: GST
T1 sequence (P49327 whole entry): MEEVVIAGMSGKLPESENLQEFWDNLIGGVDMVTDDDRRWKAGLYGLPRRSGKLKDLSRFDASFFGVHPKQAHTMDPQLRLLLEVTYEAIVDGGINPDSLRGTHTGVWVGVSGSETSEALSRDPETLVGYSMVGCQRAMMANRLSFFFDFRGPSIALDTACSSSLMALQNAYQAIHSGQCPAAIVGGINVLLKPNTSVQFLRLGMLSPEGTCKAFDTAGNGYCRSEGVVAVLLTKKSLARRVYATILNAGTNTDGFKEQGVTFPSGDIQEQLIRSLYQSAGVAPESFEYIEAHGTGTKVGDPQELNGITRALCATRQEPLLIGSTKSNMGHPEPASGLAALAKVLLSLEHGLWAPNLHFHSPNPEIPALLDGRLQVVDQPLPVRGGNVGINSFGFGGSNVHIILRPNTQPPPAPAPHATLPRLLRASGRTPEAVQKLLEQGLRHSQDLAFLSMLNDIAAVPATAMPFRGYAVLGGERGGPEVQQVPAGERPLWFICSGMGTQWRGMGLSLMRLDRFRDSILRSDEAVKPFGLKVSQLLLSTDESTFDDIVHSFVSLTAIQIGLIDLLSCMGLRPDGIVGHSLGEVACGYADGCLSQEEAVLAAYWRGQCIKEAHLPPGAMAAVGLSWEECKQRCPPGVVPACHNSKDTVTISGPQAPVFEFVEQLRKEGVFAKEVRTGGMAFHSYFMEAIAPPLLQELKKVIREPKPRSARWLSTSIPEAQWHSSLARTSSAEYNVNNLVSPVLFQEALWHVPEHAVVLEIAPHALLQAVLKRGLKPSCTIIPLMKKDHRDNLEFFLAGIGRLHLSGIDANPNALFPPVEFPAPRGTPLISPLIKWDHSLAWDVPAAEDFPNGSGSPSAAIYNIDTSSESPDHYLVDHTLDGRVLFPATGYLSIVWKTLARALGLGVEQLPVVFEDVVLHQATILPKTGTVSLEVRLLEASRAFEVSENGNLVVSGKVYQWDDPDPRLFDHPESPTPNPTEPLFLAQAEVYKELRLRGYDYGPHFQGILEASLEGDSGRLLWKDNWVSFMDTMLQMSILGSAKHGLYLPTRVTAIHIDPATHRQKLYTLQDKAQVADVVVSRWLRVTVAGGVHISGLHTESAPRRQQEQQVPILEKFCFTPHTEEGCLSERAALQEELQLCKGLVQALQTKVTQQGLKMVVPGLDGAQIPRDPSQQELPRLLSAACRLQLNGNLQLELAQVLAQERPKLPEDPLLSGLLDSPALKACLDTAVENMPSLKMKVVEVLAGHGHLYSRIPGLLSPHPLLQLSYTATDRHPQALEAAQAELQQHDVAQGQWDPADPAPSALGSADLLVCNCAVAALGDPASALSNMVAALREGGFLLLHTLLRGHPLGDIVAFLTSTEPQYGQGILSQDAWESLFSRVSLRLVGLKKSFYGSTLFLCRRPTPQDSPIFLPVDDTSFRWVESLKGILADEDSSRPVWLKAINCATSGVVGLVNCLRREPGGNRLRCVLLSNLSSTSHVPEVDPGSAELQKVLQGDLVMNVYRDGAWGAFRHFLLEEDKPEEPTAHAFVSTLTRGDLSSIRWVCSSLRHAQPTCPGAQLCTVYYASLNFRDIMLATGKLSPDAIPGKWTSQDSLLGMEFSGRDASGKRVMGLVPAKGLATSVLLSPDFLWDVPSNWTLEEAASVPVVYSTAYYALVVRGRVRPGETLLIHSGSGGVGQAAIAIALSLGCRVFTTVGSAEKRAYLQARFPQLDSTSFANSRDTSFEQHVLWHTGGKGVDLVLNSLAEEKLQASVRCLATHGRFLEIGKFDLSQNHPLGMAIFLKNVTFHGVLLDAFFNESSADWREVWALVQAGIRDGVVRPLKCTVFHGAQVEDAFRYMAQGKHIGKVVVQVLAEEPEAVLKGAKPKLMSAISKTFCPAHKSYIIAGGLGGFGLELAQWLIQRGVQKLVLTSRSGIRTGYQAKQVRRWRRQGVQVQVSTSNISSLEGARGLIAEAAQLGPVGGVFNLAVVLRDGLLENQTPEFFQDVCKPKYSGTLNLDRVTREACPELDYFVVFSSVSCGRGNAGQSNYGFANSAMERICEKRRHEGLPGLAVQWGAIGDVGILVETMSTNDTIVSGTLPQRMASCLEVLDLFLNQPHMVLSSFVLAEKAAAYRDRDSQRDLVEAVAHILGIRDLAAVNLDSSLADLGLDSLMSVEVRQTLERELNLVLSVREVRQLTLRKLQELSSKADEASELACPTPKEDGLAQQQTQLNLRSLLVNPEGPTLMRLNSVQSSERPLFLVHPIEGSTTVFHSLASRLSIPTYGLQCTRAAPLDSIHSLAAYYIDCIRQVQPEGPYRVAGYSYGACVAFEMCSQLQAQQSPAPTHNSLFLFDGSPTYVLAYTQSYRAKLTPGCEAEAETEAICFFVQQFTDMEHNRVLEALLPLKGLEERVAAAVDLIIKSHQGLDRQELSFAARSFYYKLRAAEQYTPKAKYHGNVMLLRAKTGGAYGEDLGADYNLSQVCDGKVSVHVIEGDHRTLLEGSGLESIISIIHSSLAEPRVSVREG
The test is described as follows: FASN enzyme activity assay, fluorescence-based detection of CoA with CPM. Format: biochemical. To be noted: 5 nM FASN, 150 μM NADPH, 10 μM acetyl-CoA, 25 μM malonyl-CoA, 90 minutes incubation; read-out: IC50 data for Compounds of Formulae I-V/V(a): Activity. The source says: FASN Enzyme activity may be determined by detecting coenzyme A (CoA), a product of FASN-catalyzed synthesis of palmitate from acetyl-CoA and malonyl-CoA with NADPH as a cofactor. The assay is fluorescence-based and measures the interaction of free CoA with 7-diethylamino-3-(4′-malemimidylphenyl)-4-methylcoumarin (CPM; Life Technologies, CA) as described in Chung et al (2008). The coumarin derivative CPM contains a thiol-reactive maleimide that becomes fluorescent upon interaction with the sulfhydryl group of CoA.
For the example compounds described herein, the reaction was performed in 384-well low volume non-binding plates (Corning, N.Y.) using recombinant human baculovirus-expressed GST-tagged FASN. The 20-μL assay mixture contained 50 mM HEPES (pH 7.5), 5 nM FASN, 150 μM NADPH (Sigma, St. Louis, Mo.), 10 μM acetyl-CoA (Sigma), 25 μM malonyl-CoA (Sigma) and test compound [diluted in dimethyl sulfoxide (DMSO); 0.5% DMSO final in assay after 100 nL addition]. See, Chung et al.; “A fluorescence-based thiol quantification assay for ultra-high-throughput screening for inhibitors of coenzyme A production,” Assay Drug Dev Tech 2008; 6:361-374.
The reaction was initiated by adding malonyl-CoA, followed by incubation for 90 minutes at […]. A stock solution of the CPM reagent was prepared in DMSO at […] and stored at […]. To detect CoA produced in the FASN reaction, the CPM stock was diluted to […] in 70% ethanol and added at 4 μL/well to the assay plate. The reaction mixture was then incubated for 30 minutes. Fluorescence was measured using the EnVision™ 2102 multi-label plate reader (PerkinElmer, Waltham, Mass.) utilizing a general dual mirror, a 390 nm excitation filter and a 530 nm emission filter. Data analysis was performed using ActivityBase (IDBS, Guilford, UK). IC50 values were calculated by plotting the percent inhibition versus log 10 of the concentration of the compound, and fitting to the nonlinear regression sigmoidal dose-response (variable slope) equation in XLFit (IDBS).
For “1-{4-[4-(4-Methylisoquinolin-6-yl)-phenox]-piperidin-1-yl}-propan-1-one HCl [Example 457]”, the IC50 was in the range of 1 to 99 nM. Regarding `Cc1c(-c2ccc(OC3CCN(C(=O)[C@H]4CCCO4)C(C)C3)cc2)ccc2cccnc12` (mixture of isomers) [Example 362, {2-Methyl-4-[4-(8-methylquinolin-7-yl)-phenoxy]-piperidin-1-yl}-(R)-tetrahydrofuran-2-yl-methanone, HCl], the IC50 is 1 to 99 nM. Regarding `CCC(=O)N1CCC(Oc2ccc(-c3ccc4cccnc4c3C)cc2)CC1C` (mixture of isomers) [Example 363, 1-{2-Methyl-4-[4-(8-methylquinolin-7-yl)-phenoxy]-piperidin-1-yl}-propan-1-one, HCl], the IC50 lay in the range of 100 to 999 nM. Then `CCC(=O)N1CCC(Oc2ccc(-c3ccc4cccnc4c3C)cc2)CC1C` (mixture of isomers) [Example 364, 1-{2-Methyl-4-[4-(8-methylquinolin-7-yl)-phenoxy]-piperidin-1-yl}-propan-1-one, HCl], with 100 to 999 nM; and `CCC(=O)N1CCC(Oc2ccc(-c3ccc4cccnc4c3C)cc2)C(C)C1` (mixture of isomers) [Example 375, 1-{3-Methyl-4-[4-(8-methylquinolin-7-yl)-phenoxy]-piperidin-1-yl}-propan-1-one, TFA salt], with 1 to 99 nM. Then `C[C@H]1CCO[C@H]1C(=O)N1CCC(Oc2ccc(-c3cnc4ccccc4c3)cc2)CC1` (racemic) [Example 154, ((2R,3S)/(2S,3R)-3-Methyl-tetrahydrofuran-2-yl)-[4-(4-quinolin-3-yl-phenoxy)-piperidin-1-yl]-methanone, HCl], with 1 to 99 nM. Then `C[C@@H]1C[C@H](C)[C@H](C(=O)N2CCC(Oc3ccc(-c4cnc5ccccc5c4)cc3)CC2)O1` (racemic) [Example 155, ((2R,3S,5R)/(2S,3R,5S)-3,5-Dimethyl-tetrahydrofuran-2-yl)-[4-(4-quinolin-3-yl-phenoxy)-piperidin-1-yl]-methanone, HCl], with 1000 to 10000 nM; and `Cc1c(-c2ccc(O[C@H]3CCN4C(=O)CC[C@H]4C3)cc2)ccc2cccnc12` (racemic) [Example 355, (±)-(7S,8aS)-7-(4-(8-Methylquinolin-7-yl)phenoxy)hexahydroindolizin-3 (2H)-one], with 1000 to 10000 nM; and `Cc1c(-c2ccc(O[C@@H]3CCN4C(=O)CC[C@H]4C3)cc2)ccc2cccnc12` (racemic) [Example 356, (±)-(7R,8aS)-7-(4-(8-Methylquinolin-7-yl)phenoxy)hexahydroindolizin-3(2H)-one], with 1000 to 10000 nM. For the compound `Cc1c(-c2ccc(OC3CCN(C(=O)C4CC4)C(C)C3)cc2)ccc2cccnc12` (racemic) [Example 365, Cyclopropyl-{2-methyl-4-[4-(8-methylquinolin-7-yl)-phenoxy]-piperidin-1-yl}-methanone HCl], the IC50 lay in the range of 1000 to 10000 nM. For `Cc1c(-c2ccc(O[C@@H]3CCN(C(=O)[C@@H]4CCCO4)C[C@H]3F)cc2)ccc2cccnc12` (racemic) [Example 372, {(trans)-3-Fluoro-4-[4-(8-methylquinolin-7-yl)-phenoxy]-piperidin-1-yl}-(R)-tetrahydrofuran-2-yl-methanone, HCl] the value was 1 to 99 nM.

Regarding `CCC(=O)N1CC[C@H](Oc2ccc(-c3ccc4cccnc4c3C)cc2)[C@H](F)C1` (relative stereo) [Example 367, 1-{cis-3-Fluoro-4-[4-(8-methylquinolin-7-yl)-phenoxy]-piperidin-1-yl}-propan-1-one, HCl], the IC50 fell in the range of 1000 to 10000 nM. Then `Cc1c(-c2ccc(O[C@H]3CCN(C(=O)C4CC4)C[C@H]3F)cc2)ccc2cccnc12` (relative stereo) [Example 368, Cyclopropyl-{cis-3-fluoro-4-[4-(8-methylquinolin-7-yl)-phenoxy]-piperidin-1-yl}-methanone, HCl], with 1000 to 10000 nM; and `CCC(=O)N1CC[C@@H](Oc2ccc(-c3ccc4cccnc4c3C)cc2)[C@H](F)C1` (relative stereo) [Example 373, 1-{trans-3-Fluoro-4-[4-(8-methylquinolin-7-yl)-phenoxy]-piperidin-1-yl}-propan-1-one, HCl], with 100 to 999 nM; and `Cc1c(-c2ccc(O[C@@H]3CCN(C(=O)C4CC4)C[C@H]3F)cc2)ccc2cccnc12` (relative stereo) [Example 374, Cyclopropyl-{trans-3-fluoro-4-[4-(8-methylquinolin-7-yl)-phenoxy]-piperidin-1-yl}-methanone, HCl], with 100 to 999 nM. Then `CCC(=O)N1CCC(Oc2ccc(-c3ccc4cccnc4c3)cc2)C1` (stereo in doubt) [Example 342, (S)-1-(3-(4-(Quinolin-7-yl)phenoxy)pyrrolidin-1-yl)propan-1-one, HCl], with 1000 to 10000 nM; and `Cc1ccc2ncccc2c1-c1ccc(OC2CCN(C(=O)C3CCCO3)CC2)cc1` (stereo in doubt) [Example 354, (R)-(4-(4-(6-Methylquinolin-5-yl)phenoxy)piperidin-1-yl)(tetrahydrofuran-2-yl)methanone], with 1 to 99 nM. For `Cc1c(-c2ccc(OC3CCN(C(=O)C4CCCO4)CC3C)cc2)ccc2cccnc12` (stereo in doubt) [Example 377, {3-Methyl-4-[4-(8-methylquinolin-7-yl)-phenoxy]-piperidin-1-yl}-(R)-tetrahydrofuran-2-yl-methanone, TFA salt] the value was 1 to 99 nM. As for `CCC(=O)N1CCC(Oc2ccc(-c3ccc4cnccc4c3)cc2)CC1` [Example 1, 1-[4-(4-Isoquinolin-6-yl-phenoxy)-piperidin-1-yl]-propan-1-one], the IC50 was 1 to 99 nM. As to `CCC(=O)N1CCC(Oc2ccc(-c3cnc4ccccc4c3)cc2)CC1` [Example 2, 1-[4-(4-Quinolin-3-yl-phenoxy)-piperidin-1-yl]-propan-1-one], the IC50 lay within 1 to 99 nM. Then `CC(C)C(=O)N1CCC(Oc2ccc(-c3ccc4cccnc4c3)cc2)CC1` [Example 3, 2-Methyl-1-[4-(4-quinolin-7-yl-phenoxy)-piperidin-1-yl]-propan-1-one], with 100 to 999 nM; and `CCC(=O)N1CCC(Oc2ccc(-c3ccc4cccnc4c3)cc2)CC1` [Example 4, 1-[4-(4-Quinolin-7-yl-phenoxy)-piperidin-1-yl]-propan-1-one], with 1 to 99 nM. On to `CC(C)(C)OC(=O)N1CCC(Oc2ccc(-c3cnc4ccccc4c3)cc2F)CC1` [Example 5, 4-(2-Fluoro-4-quinolin-3-yl-phenox)piperidine-1-carboxylic acid t-butyl ester], for which the IC50 was in the range of 1000 to 10000 nM. `CCC(=O)N1CCC(Oc2ccc(-c3cnc4ccccc4c3)cc2F)CC1` [Example 6, 1-[4-(2-Fluoro-4-quinolin-3-yl-phenoxy)piperidin-1-yl]propan-1-one]: the IC50 fell in the range of 1 to 99 nM.

`CC(C)C(=O)N1CCC(Oc2ccc(-c3cnc4ccccc4c3)cc2F)CC1` [Example 7, 1-[4-(2-Fluoro-4-quinolin-3-yl-phenoxy)-piperidin-1-yl]-2-methyl-propan-1-one]: the IC50 lay in the range of 1 to 99 nM. `CCC(=O)N1CCC(Oc2ccc(-c3ccc4occc4c3)cc2)CC1` [Example 8, 1-[4-(4-Benzofuran-5-yl-phenoxy)-piperidin-1-yl]-propan-1-one]: the IC50 was 100 to 999 nM.

Take `CC(C)C(=O)N1CCC(Oc2ccc(-c3ccc4occc4c3)cc2)CC1` [Example 9, 1-[4-(4-Benzofuran-5-yl-phenoxy)-piperidin-1-yl]-2-methyl-propan-1-one]: the IC50 was 1000 to 10000 nM.
